Numbering of substitutions follows the chain as printed.
Key:
[1] = target: T1, E2C-I159A/H547A (C90A/C306A/I159A/H547A) (Homo sapiens, UniProt Q01959, C306A/C90A/H547A/I159A); experiment: MTSET assay, [3H]DA uptake in HEK293 cells; format: cell-based; conditions: 1 mM MTSET
T1 construct: expressed in transfected cells; host or cells: HEK293 cells, transient, pcDNA3.1+
T1 sequence (Q01959 1-620 C90A/I159A/C306A/H547A): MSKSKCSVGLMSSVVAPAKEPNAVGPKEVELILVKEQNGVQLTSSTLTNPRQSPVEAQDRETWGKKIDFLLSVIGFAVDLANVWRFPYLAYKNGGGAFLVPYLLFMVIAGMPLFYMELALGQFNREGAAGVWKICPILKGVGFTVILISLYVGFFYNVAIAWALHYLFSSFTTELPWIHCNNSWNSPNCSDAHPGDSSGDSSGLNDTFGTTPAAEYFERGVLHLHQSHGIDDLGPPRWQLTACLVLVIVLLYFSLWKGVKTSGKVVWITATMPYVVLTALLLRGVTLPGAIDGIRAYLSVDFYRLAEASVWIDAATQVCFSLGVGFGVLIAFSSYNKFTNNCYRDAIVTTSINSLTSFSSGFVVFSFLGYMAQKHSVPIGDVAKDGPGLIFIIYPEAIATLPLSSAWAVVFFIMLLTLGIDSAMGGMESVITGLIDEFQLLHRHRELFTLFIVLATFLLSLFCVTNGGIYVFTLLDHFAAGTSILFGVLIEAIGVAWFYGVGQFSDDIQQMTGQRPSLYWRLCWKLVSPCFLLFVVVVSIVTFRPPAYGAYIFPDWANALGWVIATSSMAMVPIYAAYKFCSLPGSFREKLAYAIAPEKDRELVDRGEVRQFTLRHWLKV
Description: (§1) All mutants on hDAT were generated based on the predictions made using our computational model, as described previously using site-directed mutagenesis based on the wild-type hDAT (WT hDAT) sequence (NCBI, cDNA clone MGC: 164,608 IMAGE: 40,146,999) (Quizon et al. [2016]). The combination of hDAT mutations on Asp206 and His547 (Aspartic acid 206 to leucine and histidine 547 to alanine, D206L/H547A) were predicted to eliminate two hydrogen bonds between Tat and hDAT. In addition, the combination of mutations on Tyr88, Asp206, and His547 (tyrosine88 to phenylalanine and aspartic acid 206 to leucine and histidine 547 to alanine, Y88F/D206L/H547A) were predicted to eliminate three hydrogen bonds from the Tat-hDAT complex. Two extracellular cysteine90 and cysteine306 residues on WT hDAT were mutated to alanine as E2C hDAT (C90A/C306A hDAT), rendering the E2C hDAT MTSET-insensitive background (Pedersen et al. [2014]). A triple mutation of the two cysteine90 and 306 residues to alanine and […] to cysteine on WT hDAT was generated as E2C-I159C hDAT (C90A/C306A/I159C) for MTSET-sensitive construct. A combination of C90A/C306A/H547A was generated as E2C/H547A hDAT for MTSET-insensitive control for H547A. To determine whether H547A-enhanced DA transport is mediated by changing transporter conformation, two combinations of C90A/C306A/I159C/H547A and C90A/C306A/I159A/H547A were generated as E2C-I159C/H547A and E2C-I159A/H547A for positive and negative controls for MTSET sensitive background, respectively. Synthetic cDNA encoding hDAT subcloned into pcDNA3.1+ (provided by Dr. Haley E Melikian, University of Massachusetts) was used as a template to generate mutants using site-directed mutagenesis performed by GENEWIZ (South Plainfield, NJ). DNA sequencing was also performed by GENEWIZ to confirm the sequences of the mutant constructs. Plasmid DNA were propagated and purified using the Qiagen Hi-speed maxi prep plasmid DNA isolation kit (Qiagen, Valencia, CA, USA).
(§2) This assay was performed based on the previous report with minor modifications (Loland et al. [2004], [2008]). First, we generated five WT hDAT based plasmid construct for MTSET-insensitive or sensitive background as we described above. HEK293 cells were grown in poly-d-lysine coated plates at a density of 1 × 10^5 cells/cm^2 were transfected with different E2C- associated hDAT background constructs: E2C hDAT, E2C-I159C hDAT, E2C/H547A hDAT, E2C-I159C/H547A or E2C-I159A/H547A. Twenty-four hours after the transfection, cells were washed twice with 1× KRH buffer, and preincubated with or without the presence of 10 µM nomifensine (for non-specific uptake) and MTSET for 10 min at room temperature. MTSET at 1 mM final concentration was chosen based on a pilot study on optimizing MTSET concentrations (0.1, 0.5 or 1.0 mM). […] Because MTSET is easily hydrolyzed in solution, the amount needed for a 10 × stock was weighed out and dissolved in 1 × KRH buffer just right before adding to the assigned wells, for a 10-fold dilution (final concentration of 1 mM in final volume of 250 µl). […] Cells were immediately washed twice with ice-cold 1 × KRH buffer to terminate the reaction and were lysed rapidly with the addition of 1 % SDS. Cell lysates were collected after incubation for 1 h at room temperature and radioactivity was determined the next day.

[2] = target: T2, E2C-I159C/H547A (C90A/C306A/I159C/H547A) (Homo sapiens, UniProt Q01959, C306A/C90A/H547A/I159C); experiment: MTSET assay, [3H]DA uptake in HEK293 cells; format: cell-based; conditions: 1 mM MTSET
T2 construct: expressed in transfected cells; host or cells: HEK293 cells, transient, pcDNA3.1+
T2 sequence (Q01959 1-620 C90A/I159C/C306A/H547A): T1 sequence (Q01959 1-620 C90A/I159A/C306A/H547A) with A159C
Description: as §1, §2

SMILES: C[N+](C)(C)CCSS(C)(=O)=O [MTSET, [2-(trimethylammonium)ethyl]-methanethiosulfonate]
- inhibition of DA uptake relative to E2C ([1]; Fig. 8b): 31%
- [3H]DA uptake in the presence of MTSET ([1]; HEK293, Fig. 8b): 59.7 ± 5.7
- further inhibition of [3H]DA uptake compared to E2C-I159C ([2]; Fig. 8b): 34%
- inhibition of DA uptake relative to E2C ([2]; Fig. 8b): 65%
- [3H]DA uptake in the presence of MTSET ([2]; HEK293, Fig. 8b): 30.4 ± 3.52

Source: PMC8329121 (Journal of Neuroimmune Pharmacology, 2021)
